# Assay results: patent publication EP4335840A1, “NEW CONTRAST AGENTS FOR USE IN DIAGNOSTIC IMAGING” (priority 2022, dated 2024)
# Read-outs that look alike come from different tables or passages of the source.
# Key:
# OATP1B3 = target: T1, OATP1B3 (Homo sapiens, UniProt Q9NPD5); assay: Uptake into stable transfected OATP1B3 HEK 293 cells; type: cell-based
# T1 sequence (Q9NPD5 1-702): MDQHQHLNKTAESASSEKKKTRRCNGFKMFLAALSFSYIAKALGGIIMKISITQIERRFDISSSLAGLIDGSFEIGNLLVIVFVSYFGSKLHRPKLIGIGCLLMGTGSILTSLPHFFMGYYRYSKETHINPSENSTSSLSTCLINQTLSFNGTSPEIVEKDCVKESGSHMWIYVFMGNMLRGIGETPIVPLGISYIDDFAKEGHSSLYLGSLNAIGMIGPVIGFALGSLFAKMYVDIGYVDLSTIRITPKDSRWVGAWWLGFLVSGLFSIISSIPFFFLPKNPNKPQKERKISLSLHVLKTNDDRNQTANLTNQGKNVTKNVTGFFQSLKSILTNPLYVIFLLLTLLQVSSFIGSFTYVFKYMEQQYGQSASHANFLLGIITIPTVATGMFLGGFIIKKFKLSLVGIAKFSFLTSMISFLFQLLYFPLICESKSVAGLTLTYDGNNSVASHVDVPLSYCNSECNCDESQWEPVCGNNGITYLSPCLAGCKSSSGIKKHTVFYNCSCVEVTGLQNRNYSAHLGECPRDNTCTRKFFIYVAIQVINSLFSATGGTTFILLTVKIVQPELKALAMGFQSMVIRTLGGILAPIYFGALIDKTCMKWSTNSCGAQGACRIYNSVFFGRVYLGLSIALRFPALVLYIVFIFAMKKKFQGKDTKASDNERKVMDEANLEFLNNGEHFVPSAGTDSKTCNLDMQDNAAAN
# [1] = test system: freshly isolated rat hepatocytes; assay: Uptake into freshly isolated rat hepatocytes; conditions: rat hepatocyte uptake with OATP1B1/1B3 inhibitor Rifampicine, test item and inhibitor each 100 µM
# Experimental: The rat hepatocytes were incubated (2.5 ·10^5 cells/well) for 2.5 to 4h in collagen coated 24-well plates (Fa. Beckton Dickinson Biocoat, cell environments, Collagen I Cellware) in Williams E-medium (Fa. Sigma W1878) in an incubator (37°C, 5% CO2 and 95% oxygen). After incubation the adherent hepatocytes were washed once with 37°C Hepes carbonate transport buffer (500 µL/well). The test items and RC1 were prepared from stock solutions (180 to 500 mM concentration) in Hepes carbonate transport buffer at pH 7.4 to reach a final concentration of 100 µmοl Gd/L. The specific uptake of the test item or RC1 into rat hepatocytes via OATP1 B1 and OATP1 B3 was challenged using a known OATP1B1/1B3 inhibitor (Rifampicine, Fa. Sigma R3501, test item and inhibitor 1:1 each 100 µM final concentration). The prepared rat hepatocyte plates were incubated with test solutions (500 µL/well) at 37°C for 10 min using a thermoshaker (Fa. Grant Bio, PHMP). Triplicates were performed for each test item. After incubating the cells were washed once with cold PBS buffer (Fa. Gibco, Dulbeccos PBS (+)). After washing the intact hepatocytes were lysed by addition of 500 µL cold 0.01 % Triton-X 100 in Millipore water for 1h. […] After 1h 500 µL of 10 nM Terbium ICP-MS standard was added in 2% nitric acid and 0.01% Triton 100 before the Gadolinium concentrations in the lysate were measured using ICP-MS (Agilent 8900, singleQuad, integr. Time 0.3 s, no gas, 5 replicates, Gd m/z 157, Tb m/z 159). As a reference standard RC1 is used in the same well plate. The hepatocyte uptake of the test compound is calculated relative to RC1 (resulting in the unit % of RC1).
# [2] = Water solubility in aqueous buffer; type: physicochemical
# Experimental: The exploratory water solubility of the compounds is determined at room temperature (20°C) in 0.5 mL buffer solution (10 mM Tris-HCI, pH 7.4) in the microcentrifuge tubes (Eppendorf, 2.0 mL safe-lock caps). The solid compounds were added stepwise to the buffer solution. More substance is added once all the suspended material is dissolved until an equilibrium between undissolved and dissolved substance is reached. The suspension was mixed using a shaker (Heidolph Reax 2000) and treated 5 min in an ultrasound bath (Bandelin, Sonorex Super RK255H). The Gadolinium concentration of the test substance in the clear solution is measured by ICP-MS. Table 1: Solubilities of compounds in aqueous buffer at 20°C (pH 7.4).
# OATP1B1 = target: T2, OATP1B1 (Homo sapiens, UniProt Q9Y6L6); assay: Uptake into stable transfected OATP1B1 HEK 293 cells; type: cell-based
# T2 sequence (Q9Y6L6 1-691): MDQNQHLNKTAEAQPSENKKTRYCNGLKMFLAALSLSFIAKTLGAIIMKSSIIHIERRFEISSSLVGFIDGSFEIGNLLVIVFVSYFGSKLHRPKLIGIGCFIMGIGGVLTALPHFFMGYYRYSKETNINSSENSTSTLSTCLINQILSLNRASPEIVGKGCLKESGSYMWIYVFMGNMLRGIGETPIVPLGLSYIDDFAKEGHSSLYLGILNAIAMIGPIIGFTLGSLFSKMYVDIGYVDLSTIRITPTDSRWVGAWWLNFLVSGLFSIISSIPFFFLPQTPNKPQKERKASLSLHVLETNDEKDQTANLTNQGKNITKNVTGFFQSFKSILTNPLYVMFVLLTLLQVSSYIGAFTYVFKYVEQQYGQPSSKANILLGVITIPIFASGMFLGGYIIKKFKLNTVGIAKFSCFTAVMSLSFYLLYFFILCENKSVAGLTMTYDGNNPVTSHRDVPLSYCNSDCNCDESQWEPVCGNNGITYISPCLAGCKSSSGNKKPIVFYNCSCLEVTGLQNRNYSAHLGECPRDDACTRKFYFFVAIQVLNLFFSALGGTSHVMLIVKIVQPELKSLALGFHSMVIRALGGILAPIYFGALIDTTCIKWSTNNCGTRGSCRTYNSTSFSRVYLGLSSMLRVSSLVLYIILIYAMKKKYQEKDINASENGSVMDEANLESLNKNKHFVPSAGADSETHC
# [3] = Complex stability (transmetallation with Zn2+, proton relaxometry); type: physicochemical; conditions: 72 hours, 2.5 mM Zn2+, 26 mM phosphate buffer, 37°C, pH 7.4; 1.41 T
# Experimental: The used method is described elsewhere (Laurent S et al., Stability of MRI paramagnetic contrast media: a proton relaxometric protocol for transmetallation assessment. Invest Radiol. 2001 Feb;36(2):115-22). In brief: A solution containing 2.5 mmol/L of test compound and 2.5 mmol/L ZnCl2 in 26 mM phosphate buffer (KH2PO4 Merck; 1.09439.1000, #HC748513, pH 7,00), was incubated at 37°C over a period of at least 3 days. If test compounds are instable under these conditions, transmetallation during this test would lead to the formation of the Zn^2+ complex of the test item, while Gd^3+ is released and precipitated as highly insoluble GdPO4.
# After 3d of incubation T1 relaxation time was observed. […] Table 2: Transmetallation stability [%] of paramagnetic contrast agents over 72 hours (2.5 mM Zn2+, 26 mM phosphate buffer, 37°C, pH 7.4).
# [4] = Relaxivity measurements at 1.41 T in water and human plasma; type: physicochemical; conditions: 37°C, normalized to Gd
# Experimental: Relaxivity measurements at 1.41 T were performed using a MiniSpec mq60 spectrometer (Bruker Analytik, Karlsruhe, Germany) operating at a resonance frequency of 60 MHz and a temperature of 37°C. The T1 relaxation times were determined using the standard inversion recovery (IR) method with a fixed relaxation delay of at least 5 × T1. The variable inversion time (TI) was calculated automatically by the standard software of the MiniSpec mq60 (8 steps). The T2 measurements were performed by using a Carr-Purcell-Meiboom-Gill (CPMG) pulse sequence, applying a relaxation delay of at least 5 × T1.
# Each relaxivity measurement was performed using three different Gd concentrations (3 concentrations between 0.05 and 2 mM). The T1 and T2 relaxation times of the example compounds 1 to 10 were measured in different media for example in water and human plasma. Human plasma preparation: For each experiment fresh blood was taken from a volunteer using 10 mL citrate-tubes (Sarstedt S-Monovette 02.1067.001, 10 mL, Citrate). The 10 mL citrate-tubes were carefully inverted 10 times to mix blood and anticoagulant and centrifuged for 15min at 1811 g at RT (Eppendorf, Centrifuge 5810R).
# The relaxivities ri (where i=1, 2) were calculated based on the measured relaxation rates Ri in water and plasma: ri = (Ri−Ri(0))/CGd [formula] where Ri(0) represent the relaxation rate of the respective solvent and CGd the concentration of the compound normalized to the Gadolinium. The Gadolinium concentrations of the investigated solutions were verified by Inductively Coupled Plasma Mass Spectrometry (ICP-MS Agilent 7500a, Waldbronn, Germany). Table 3: Relaxivities of investigated compounds in water and human plasma at 1.41 T and relaxivities of Reference compounds 1-3 (RC1-RC3) at 1.5 T in water and bovine plasma. All values are measured at 37°C and normalized to Gd and given in L mmol-1 s-1.
# [5] = in vivo; cited from earlier work
# [6] = 1.5 T, 37°C, from Rohrer et al., cited from earlier work; for r1 bovine plasma: bovine plasma instead of human plasma
# [7] = No-observed-adverse-effect level (NOAEL), intravenous bolus; conditions: mice, intravenous bolus via tail vein, dose levels up to 2.5 mmol Gd/kg bw
# [8] = OATP1B3-HEK 293 cell uptake with Rifampicine
# [9] = aqueous buffer 10 mM Tris-HCl, pH 7.4, 20°C, Gd by ICP-MS
# [10] = OATP1B1-HEK 293 cell uptake with Rifampicine
Structure (SMILES),Inhibition Rifampicine (OATP1B3; [8]),Inhibition Rifampicine [1],"Solubility [2, 9]",Inhibition Rifampicine (OATP1B1; [10]),"Stability (transmetallation stability, T1 relaxation rates R1n/R10) [3]",r1 human plasma [4],r1 water [4],secreted into the bile [5],r1 bovine plasma [6],r1 water [6],Inhibition Rifampicine (OATP1B3),excreted into the bile [5],Solubility ([2]; pH 7.4),Inhibition Rifampicine (OATP1B1),NOAEL [7]
"CCOCCOCCOc1ccc(C[C@H]2CN(CC(=O)[O-])CCN(CC(=O)[O-])CCN(CC(=O)O)CCN2CC(=O)[O-])cc1.[Gd+3] [Example 2, Gadolinium-2,2',2""-[(2S)-10-(carboxymethyl)-2-{4-[2-(2-ethoxyethoxy)ethoxy]benzyl}-1,4,7,10-tetraazacyclododecane-1,4,7-triyl]triacetate]",86 % inhibition,93 % inhibition,> 55 mM,0 % inhibition,95%,5.9 L/mmol/s,4.9 L/mmol/s,,,,,,,,
"O=C([O-])CN(CCN(CC(=O)[O-])CC(=O)[O-])CCN(CC(=O)[O-])C(COCc1ccccc1)C(=O)[O-].[Gd+3].[H+].[H+] (stereo not shown) [RC2, gadobenic acid]",,79 % inhibition,,,,,,3-to-5%,6.3 L/mmol/s,4.0 L/mmol/s,,,,,
"CCOCCOCCOCCOc1ccc(C[C@H]2CN(CC(=O)[O-])CCN(CC(=O)[O-])CCN(CC(=O)O)CCN2CC(=O)[O-])cc1.[Gd+3] [Example 5, Gadolinium-2,2',2""-[(2S)-10-(carboxymethyl)-2-(4-{2-[2-(2-ethoxyethoxy)ethoxy]ethoxy}benzyl)-1,4,7,10-tetraazacyclododecane-1,4,7-triyl]triacetate]",96 % inhibition,89 % inhibition,> 284 mM,41 % inhibition,96%,5.7 L/mmol/s,5.1 L/mmol/s,,,,,,,,
"CCOc1ccc(CC(CN(CCN(CC(=O)[O-])CC(=O)[O-])CC(=O)[O-])N(CC(=O)[O-])CC(=O)[O-])cc1.[Gd+3].[Na+].[Na+] (stereo not shown) [RC1, gadoxetate disodium, reference compound]",,97 % inhibition,,,,,,,6.9 L/mmol/s,4.7 L/mmol/s,99 % inhibition,up to 50 % of the administered dose,> 250 mM,81 % inhibition,
"COCCOCCOCCOc1ccc(C[C@H]2CN(CC(=O)[O-])CCN(CC(=O)[O-])CCN(CC(=O)O)CCN2CC(=O)[O-])cc1.[Gd+3] [Example 1, Gadolinium-2,2',2""-[(2S)-10-(carboxymethyl)-2-(4-{2-[2-(2-methoxyethoxy)-ethoxy]ethoxy}benzyl)-1,4,7,10-tetraazacyclododecane-1,4,7-triyl]triacetate]",92 % inhibition,90 % inhibition,> 201 mM,21 % inhibition,,6.6 L/mmol/s,5.1 L/mmol/s,,,,,,,,
"COCCOCCOCCOc1ccc(C[C@@H]2CN(CC(=O)[O-])CCN(CC(=O)[O-])CCN(CC(=O)O)CCN2CC(=O)[O-])cc1.[Gd+3] [Example 3, Gadolinium-2,2',2""-[(2R)-10-(carboxymethyl)-2-(4-(2-[2-(2-methoxyethoxy)ethoxy]ethoxy}benzyl)-1,4,7,10-tetraazacyclododecane-1,4,7-triyl]triacetate]",84 % inhibition,83 % inhibition,> 166 mM,31 % inhibition,,6.8 L/mmol/s,5.0 L/mmol/s,,,,,,,,
"CCOCCOCCOc1ccc(C[C@H]2CN(CC(=O)[O-])CCN(CC(=O)[O-])CCN(CC(=O)O)CCN2CC(=O)[O-])nc1.[Gd+3] [Example 6, Gadolinium 2,2',2""-[(2S)-10-(carboxymethyl)-2-({5-[2-(2-ethoxyethoxy)ethoxy]pyridin-2-yl}methyl)-1,4,7,10-tetraazacyclododecane-1,4,7-triyl]triacetate]",65 % inhibition,91 % inhibition,,2 % inhibition,,5.9 L/mmol/s,5.3 L/mmol/s,,,,,,,,
"O=C([O-])CN1CCN(CC(=O)[O-])CCN([C@H](CO)[C@H](O)CO)CCN(CC(=O)[O-])CC1.[Gd+3] (racemic) [RC3, gadobutrol]",,,,,stable,,,,5.2 L/mmol/s,3.3 L/mmol/s,,,,,
CCOCCOc1ccc(C[C@H]2CN(CC(=O)[O-])CCN(CC(=O)[O-])CCN(CC(=O)O)CCN2CC(=O)[O-])cc1.[Gd+3] [Example 4],97 % inhibition,94 % inhibition,> 738 mM,29 % inhibition,,6.6 L/mmol/s,4.8 L/mmol/s,,,,,,,,2.50 mmol Gd/kg bw
